Consider two compounds from article PMC9964023 (Marine Drugs, 2023).

Common to all, as to assay: biochemical
Experiment [1] concerns the target T1, norepinephrine transporter (NET) (Rattus norvegicus, UniProt Q63380).
T1 construct: brains were processed to yield synaptosomes as previously described; from tissue; host or cells: rat whole brain minus caudate and cerebellum, synaptosomes
In kind it is biochemical.

For experiment [2], the target named is T2, serotonin transporter (SERT) (Rattus norvegicus, UniProt P31652).
T2 construct: brains were processed to yield synaptosomes as previously described; from tissue; host or cells: rat whole brain minus caudate and cerebellum, synaptosomes
T2 sequence (P31652 whole entry): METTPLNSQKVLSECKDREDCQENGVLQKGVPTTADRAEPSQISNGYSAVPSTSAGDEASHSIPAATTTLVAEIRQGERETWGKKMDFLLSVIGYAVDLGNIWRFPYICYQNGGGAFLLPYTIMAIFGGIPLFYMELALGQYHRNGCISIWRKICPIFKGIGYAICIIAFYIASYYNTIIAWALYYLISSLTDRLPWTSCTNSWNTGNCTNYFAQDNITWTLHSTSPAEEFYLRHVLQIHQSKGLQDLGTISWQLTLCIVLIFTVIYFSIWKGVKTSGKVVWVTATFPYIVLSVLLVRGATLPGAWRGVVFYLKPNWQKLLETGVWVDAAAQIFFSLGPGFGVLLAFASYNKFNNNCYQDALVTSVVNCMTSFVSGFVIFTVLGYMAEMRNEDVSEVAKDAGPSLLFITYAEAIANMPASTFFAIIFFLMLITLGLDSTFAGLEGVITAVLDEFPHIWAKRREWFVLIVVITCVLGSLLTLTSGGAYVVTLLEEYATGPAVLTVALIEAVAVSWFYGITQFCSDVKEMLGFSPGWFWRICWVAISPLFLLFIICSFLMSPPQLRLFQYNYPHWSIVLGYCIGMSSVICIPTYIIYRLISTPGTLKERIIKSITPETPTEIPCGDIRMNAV

The target of experiment [3] is T3, dopamine transporter (DAT) (Rattus norvegicus, UniProt P23977).
T3 construct: brains were processed to yield synaptosomes as previously described; from tissue; host or cells: rat caudate synaptosomes
T3 sequence (P23977 whole entry): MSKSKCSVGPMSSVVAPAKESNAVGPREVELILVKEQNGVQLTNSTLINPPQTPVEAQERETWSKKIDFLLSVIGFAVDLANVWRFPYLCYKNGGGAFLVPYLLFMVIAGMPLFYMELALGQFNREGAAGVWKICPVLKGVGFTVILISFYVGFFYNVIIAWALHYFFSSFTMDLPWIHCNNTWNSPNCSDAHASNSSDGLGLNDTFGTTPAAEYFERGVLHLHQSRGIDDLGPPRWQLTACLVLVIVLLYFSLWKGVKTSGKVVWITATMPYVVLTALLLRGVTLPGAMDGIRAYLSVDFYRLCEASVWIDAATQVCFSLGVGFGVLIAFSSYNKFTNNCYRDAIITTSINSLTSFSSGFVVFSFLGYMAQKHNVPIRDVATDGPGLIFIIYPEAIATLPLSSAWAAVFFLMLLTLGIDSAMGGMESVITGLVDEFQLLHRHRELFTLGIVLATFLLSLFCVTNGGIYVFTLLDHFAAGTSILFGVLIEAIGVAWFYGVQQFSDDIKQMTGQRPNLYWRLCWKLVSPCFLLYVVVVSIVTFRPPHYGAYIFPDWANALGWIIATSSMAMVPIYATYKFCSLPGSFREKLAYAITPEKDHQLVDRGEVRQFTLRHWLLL

“Also recorded” adds a separate entry of the source. Bridge positions count the residues as written; N and C are the ends. Peptide text beside a SMILES is read from it.

T1 sequence (Q63380 1-617): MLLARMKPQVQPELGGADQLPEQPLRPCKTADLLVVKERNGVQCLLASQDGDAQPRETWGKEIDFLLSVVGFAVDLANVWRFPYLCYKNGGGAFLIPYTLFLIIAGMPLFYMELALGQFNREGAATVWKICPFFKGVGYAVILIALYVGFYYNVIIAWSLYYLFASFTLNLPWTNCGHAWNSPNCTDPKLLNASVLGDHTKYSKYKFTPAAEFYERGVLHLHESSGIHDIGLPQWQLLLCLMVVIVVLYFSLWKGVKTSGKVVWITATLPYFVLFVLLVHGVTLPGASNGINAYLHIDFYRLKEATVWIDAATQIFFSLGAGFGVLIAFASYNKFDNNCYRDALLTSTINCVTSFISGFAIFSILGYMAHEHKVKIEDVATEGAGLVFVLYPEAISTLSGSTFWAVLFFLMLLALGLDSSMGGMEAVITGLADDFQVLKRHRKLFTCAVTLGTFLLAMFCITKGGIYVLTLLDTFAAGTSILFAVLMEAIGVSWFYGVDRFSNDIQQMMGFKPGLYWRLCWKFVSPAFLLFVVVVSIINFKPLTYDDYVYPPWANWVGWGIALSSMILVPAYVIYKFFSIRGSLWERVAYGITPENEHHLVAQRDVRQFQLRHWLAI

As to `CSCC[C@@H]1NC(=O)[C@H](CCCNC(=N)N)NC(=O)[C@H](Cc2ccc(O)cc2)NC(=O)CNC(=O)[C@@H]2CSSC[C@@H](C(N)=O)NC(=O)[C@@H]3CCCN3C(=O)[C@H](C(C)C)NC(=O)[C@H](CSSC[C@H](NC(=O)[C@@H](NC(=O)[C@@H](N)CO)[C@@H](C)O)C(=O)N2)NC1=O` [PnID A] (H-STCCGYRMCVPC-NH2; disulfide 3-9, 4-12), the half-maximal inhibitory concentration (IC50) in experiment [1], in experiment [2] and in experiment [3] was more than 100 µM each time. For the same compound, in experiment [1], the “activity at NET relative to ribbon isomer (in words)” value is “more than ten times less activity; also recorded: much less active in inhibiting the rat NET”.
In experiment [1], `CSCC[C@@H]1NC(=O)[C@H](CCCNC(=N)N)NC(=O)[C@H](Cc2ccc(O)cc2)NC(=O)CNC(=O)[C@@H]2CSSC[C@H](NC1=O)C(=O)N[C@@H](C(C)C)C(=O)N1CCC[C@H]1C(=O)N[C@H](C(N)=O)CSSC[C@H](NC(=O)[C@@H](NC(=O)[C@@H](N)CO)[C@@H](C)O)C(=O)N2` [PnID B] (H-STCCGYRMCVPC-NH2; disulfide 3-12, 4-9) registered a 50% inhibitory concentration (IC50) of 10 µM.
